Changes are numbered by the printed parent chain. Numbers in names are those of the source. Values belong to the molecule of their own block, whether it stands above or below them.
How the values were obtained:
[1] = target: T1, Dictyostelium NDP Kinase wt (Dictyostelium discoideum, UniProt P22887); assay: Pre-steady-state fluorescence stopped-flow phosphotransfer from nucleoside triphosphates, wild type Dd-NDPK; format: biochemical; conditions: average of three determinations
T1 construct: made in house
Description: (§1) The binding constants were determined at equilibrium by recording the increase in fluorescence (Schneider, 2000).
After mixing NDPK (1 μM) and NTP or an analogTP (10-500 μM), the intrinsic protein fluorescence was recorded for 10-200 sec. In each experiment, 400 pairs of data were recorded, and the data from 3-4 identical experiments were averaged and fitted to a number of non-linear analytical equations using the software provided by Hi-Tech.
(§2) The data were analyzed using the reaction scheme: [drawing 1]
The rate of this observed single step is: [formula]
(§3) and reaches a limiting value (k+2) at NTP saturation. […] Therefore, catalytic efficiencies of phosphorylation (CEphos=k+2/(k−1/k+1)=k+2/KS) were measured, which are equivalent to second order constants and allow a reliable comparison of a variety of NDP kinase substrates.

[2] = target: T2, Dictyostelium NDP Kinase N119S (Dictyostelium discoideum, UniProt P22887, N119S); assay: Pre-steady-state fluorescence stopped-flow phosphotransfer from nucleoside triphosphates, N119S Dd-NDPK; format: biochemical; conditions: pre-steady state, stopped-flow; average of three determinations
T2 construct: made in house
Description: (§4) All numbers in italics have already been published (Schneider, 1998, 2000) The kinetic constants were measured at the pre-steady-state level using a fluorescence stopped-flow device. The binding constants were determined at equilibrium by recording the increase in fluorescence (Schneider, 2000). Values are the average of three independent determinations.
(§5) As the diphosphate form of analogs were not always available, the triphosphate analogs were used to study phosphate transfer in reaction as in Scheme I. Experiments were performed with an Hi-Tech DX2 microvolume stopped-flow reaction (Schneider, 1998) at Aexc=296 nm (for Ado derivatives) or […] (for other nucleotides), 2 mm excitation slit and a 320 nm cutoff filter at the emission. After mixing NDPK (1 μM) and NTP or an analogTP (10-500 μM), the intrinsic protein fluorescence was recorded for 10-200 sec. In each experiment, 400 pairs of data were recorded, and the data from 3-4 identical experiments were averaged and fitted to a number of non-linear analytical equations using the software provided by Hi-Tech. All curves fitted to single exponentials.
as §2
(§6) In both the forward and the reverse reactions, the product concentration remains very low, thus the product binding can be neglected, and the observed single step could be attributed to the phosphotransfer (Schneider, 1998). The rate of this observed single step is: [formula]
(§7) and reaches a limiting value (k+2) at NTP saturation. Saturation could not be obtained with the concentrations of any NTP used here. Therefore, catalytic efficiencies of phosphorylation (CEphos=k+2/(k−1/k+1)=k+2/KS) were measured, which are equivalent to second order constants and allow a reliable comparison of a variety of NDP kinase substrates.

[3] = target: T3, Dictyostelium discoideum NDP kinase (Dd-NDPK) variant N119S, SEQ ID NO: 1 (Dictyostelium discoideum, UniProt P22887, N119S); assay: Pre-steady-state phosphotransfer, fluorescence stopped-flow; format: biochemical; conditions: for k2/Ks: catalytic efficiency of phosphotransfer, N119S, pre-steady state
T3 construct: made in house
Description: (§8) (A) Kinetics of reaction of phosphorylated Dictyostelium wild type and N119S NDP kinases by 100 μM Acyclovir diphosphate (Acy-DP). The phosphorylated enzyme was prepared with a stoichiometry #1 as described (Deville-Bonne 1996). The kinases were preincubated with ATP in excess in buffer T (50 mM Tris-HCl, pH 7.5, 5 mM MgCl2 and 75 mM KCl). The increase in fluorescence upon mixing the phospho-enzyme (1 μM, final concentration) with Acy-DP in buffer T at 20° C. was monitored with a stopped-flow. The solid lines represent the best fit of each curve to a monoexponential.
(§9) (B) Concentration dependence of the rate constant on Acy-DP concentation. The pseudo-first order rate constant for the reaction (kobs) was plotted against Acy-DP.
as §4
(§10) Wild type human NDPK-A and the mutants were expressed and purified according to Schneider et al., 2000, Mol Pharm. Recombinant wild type and mutant Dd-NDPK were obtained as described (Schneid, 1998a), except for N119Y NDP kinase which was partially purified by Q sepharose FF chromatography. Each protein was characterized by […] electrophoresis. The concentration of 17 kDa subunits of the enzyme was either determined by Bradford assay ([…]) or using an absorbance coefficient of ΔA^280=1.249 for a 1 mg/mL solution of human wild type and N115S NDPK-A, and =0.55 for wild type and mutant N119S, N119T Dd-NDP kinases, respectively.
as §5, §2, §6, §7

[4] = target: T4, Dictyostelium discoideum NDP kinase (Dd-NDPK), wild type (Dictyostelium discoideum, UniProt P22887); assay: as above; format: biochemical; conditions: catalytic efficiency of phosphotransfer, wt
T4 construct: made in house
Description: as §8, §9, §4, §10, §5, §2, §6, §7

[5] = target: T5, Dictyostelium discoideum NDP kinase inactive variant EI (H122G-F64W) (Dictyostelium discoideum, UniProt P22887, F64W/H122G); assay: biochemical; format: binding
T5 construct: made in house
Description: as §1
(§11) Analog binding affinity was measured using a variant of Dd-NDPK (EI) as described (Schneider, 2000). […] The mutation N119S was inserted in EI in order to measure the nucleotide affinity by fluorescence titration.
(§12) Altered bases as compared to the wild type sequence are underlined in bold. Sequences were checked by automatic sequencing. The mutant EI-N119S was obtained by mutation of the previously described F64W-H122G mutated NDP kinase (here called EI) (Schneider 2000).

[6] = target: T6, Dictyostelium discoideum NDP kinase inactive variant EI-N119S (H122G-F64W-N119S) (Dictyostelium discoideum, UniProt P22887, F64W/H122G/N119S); assay: biochemical; format: binding
T6 construct: made in house
Description: as §1, §11, §12

[7] = target: T7, human NDP kinase A (NDPK-A, nm23-H1), wild type (Homo sapiens, UniProt P15531); assay: Pre-steady-state phosphotransfer, fluorescence stopped-flow; format: biochemical; conditions: for k2/Ks: catalytic efficiency of phosphotransfer, NDPK-A, pre-steady state
T7 construct: made in house
Description: (§13) FIG. 3 depicts the catalytic efficiency of NDPK-A and mutants for nucleoside analogs. The rates of phosphorylation of pure recombinant NDP kinases (1 μM) were measured at the pre-steady state in a fluorescence stopped-flow with d4T-TP (10 to 80 μM). The catalytic efficiency (expressed in M^−1s^−1) was determined from the variation of the rate as a function of analog as shown in FIG. 2 (▾, NDPK-A, ♦ L55H, ● N115S, ▪ L55H-N115S).
(§14) The activity assays were performed at the pre-steady state level.
as §10
as §5, with “Hi-Tech.” for “Hi-Tech. All curves fitted to single exponentials.”
as §2, §6, §3

[8] = target: T8, human NDP kinase A (NDPK-A) variant L55H (Homo sapiens, UniProt P15531, L55H); assay: as above; format: biochemical; conditions: for k2/Ks: catalytic efficiency of phosphotransfer; for Specificity change (R): ratio of catalytic efficiencies analog vs natural nucleotide, mutant vs wild type
T8 construct: made in house; host or cells: E. coli
Description: as §13, §14
(§15) R, the specificity change, is the ratio of the catalytic efficiencies (for analog versus natural nucleotide) of the mutant compared to the wild type enzyme.
as §10
as §5, with “Hi-Tech.” for “Hi-Tech. All curves fitted to single exponentials.”
as §2, §6, §3

[9] = target: T9, human NDP kinase A (NDPK-A) variant L55H-N115S, SEQ ID NO: 3 (Homo sapiens, UniProt P15531, L55H/N115S); assay: as above; format: biochemical; conditions: for k2/Ks: catalytic efficiency of phosphotransfer; for Specificity change (R): ratio of catalytic efficiencies analog vs natural nucleotide, mutant vs wild type; for enhancement of ability to phosphorylate: substitution of Asn 115 for Ser and Leu 55 for His
T9 construct: made in house; host or cells: E. coli
Description: as §13, §14, §15, §10
as §5, with “Hi-Tech.” for “Hi-Tech. All curves fitted to single exponentials.”
as §2, §6, §3

[10] = target: T10, human NDP kinase A (NDPK-A) variant N115S, SEQ ID NO: 2 (Homo sapiens, UniProt P15531, N115S); assay: as above; format: biochemical; conditions: for k2/Ks: catalytic efficiency of phosphotransfer; for Specificity change (R): ratio of catalytic efficiencies analog vs natural nucleotide, mutant vs wild type
T10 construct: made in house; host or cells: E. coli
Description: as §13, §14, §15, §10
as §5, with “Hi-Tech.” for “Hi-Tech. All curves fitted to single exponentials.”
as §2, §6, §3

[11] = Steady-state NDP kinase activity, coupled enzymes (pyruvate kinase, lactate dehydrogenase); format: biochemical; conditions: for specific activity: standard conditions: [ATP]=1 mM, [dTDP]=0.2 mM, 20° C.
Description: The activity of NDP kinase was measured at 20° C. with ATP and dTDP as substrates using coupled enzymes (pyruvate kinase and lactate dehydrogenase) (Lascu 1993). One unit is the amount of enzyme that catalyzes the phosphotransfer of 1 μmol/min under standard conditions: [ATP]=1 mM, [dTDP]=0.2 mM. Rate constants (kcat) and Michaelis constants (Km) were determined from initial velocities for two different constant ratios of nucleotide [dTDP]/[ATP]=0.05 0.1 with [ATP] varying from 0.2 to 2 mM. kcat is expressed by enzyme subunit. The ratio of the ^apparentkcat/^apparentKM at a given concentration of the other substrate is equal to the true value of kcat/KM for a ping-pong enzyme.

T4 sequence (P22887 whole entry): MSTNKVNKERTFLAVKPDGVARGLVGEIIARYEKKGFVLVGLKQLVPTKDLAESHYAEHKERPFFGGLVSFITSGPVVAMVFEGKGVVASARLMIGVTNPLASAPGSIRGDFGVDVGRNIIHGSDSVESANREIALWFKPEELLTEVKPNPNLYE
T8 sequence (P15531 whole entry L55H): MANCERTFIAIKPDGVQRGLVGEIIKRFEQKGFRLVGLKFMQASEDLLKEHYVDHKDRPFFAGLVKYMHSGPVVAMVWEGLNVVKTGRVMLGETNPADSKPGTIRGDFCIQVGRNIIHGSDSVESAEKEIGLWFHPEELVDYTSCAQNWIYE
T5 sequence (P22887 whole entry F64W/H122G): as the sequence (P22887 whole entry) above, with F64W, H122G counted along it
T6 sequence (P22887 whole entry F64W/N119S/H122G): as the sequence (P22887 whole entry) above, with F64W, N119S, H122G counted along it
T10 sequence (P15531 whole entry N115S): as the sequence (P15531 whole entry L55H) above, with H55L, N115S counted along it
T3 sequence (P22887 whole entry N119S): as the sequence (P22887 whole entry) above, with N119S counted along it
T9 sequence (P15531 whole entry L55H/N115S): as the sequence (P15531 whole entry L55H) above, with N115S counted along it
T7 sequence (P15531 whole entry): as the sequence (P15531 whole entry L55H) above, with H55L counted along it
T2 sequence (P22887 whole entry N119S): as the sequence (P22887 whole entry) above, with N119S counted along it
T1 sequence (P22887 whole entry): as the sequence (P22887 whole entry) above

Molecule: Nc1ncnc2c1ncn2[C@@H]1O[C@H](COP(=O)(O)OP(=O)(O)OP(=O)(O)O)[C@@H](O)[C@H]1O [ATP]
k2/Ks wt (catalytic efficiency of phosphotransfer) [1]: 4.5e+06 M⁻¹ s⁻¹
k2/Ks N119S (catalytic efficiency of phosphotransfer) [2]: 250000 M⁻¹ s⁻¹
k2/Ks [3]: 250000 M⁻¹ s⁻¹
k2/Ks [4]: 4.5e+06 M⁻¹ s⁻¹
Kd [5]: 0.2 µM
Kd [6]: 2.4 µM

Molecule: Nc1nc2c(ncn2COCCOP(=O)(O)OP(=O)(O)OP(=O)(O)O)c(=O)[nH]1 [acyclovirTP]
ranking as analog substrate ([3]; N119S NDP kinase): best analog substrate
k2/Ks [3]: 1650 M⁻¹ s⁻¹
k2/Ks [4]: 350 M⁻¹ s⁻¹
Kd [5]: 190 µM
Kd [6]: 20 µM
increase of affinity by Ser (N119S) ([6]; relative KD, EI versus EI-N119S): 10 fold
k2/Ks [7]: 25 M⁻¹ s⁻¹
k2/Ks ([8]; L55H, pre-steady state): 160 M⁻¹ s⁻¹
Specificity change (R) [8]: (3.4)
k2/Ks ([9]; L55H-N115S, pre-steady state): 2600 M⁻¹ s⁻¹
Specificity change (R) [9]: (460)
k2/Ks ([10]; N115S, pre-steady state): 250 M⁻¹ s⁻¹
Specificity change (R) [10]: (150)

enhancement of ability to phosphorylate [9]: 200-300 times
Molecule: Nc1nc2c(ncn2COCCO)c(=O)[nH]1 [acyclovir]

times more slowly than with dTTP ([7]; NDPK-A wild type): 1700 times
k2/Ks [7]: 700 M⁻¹ s⁻¹
reaction rate compared with Dd-NDPK ([8]; L55H mutant): at the same rate as Dd-NDPK
factor of rate versus wild type NDPK-A ([8]; L55H, pre-steady state): 9
k2/Ks ([8]; L55H, pre-steady state): 1280 M⁻¹ s⁻¹
Specificity change (R) [8]: (10)
factor of rate versus wild type NDPK-A ([9]; L55H-N115S, pre-steady state): 80
reactivity compared with dTTP ([9]; double mutant, catalytic efficiency): eight fold less
Specificity change (R) [9]: (210)
factor of rate versus wild type NDPK-A ([10]; N115S, pre-steady state): 1.8
k2/Ks ([10]; N115S, pre-steady state): 6250 M⁻¹ s⁻¹
Specificity change (R) [10]: (120)
Molecule: Cc1cn([C@H]2C=C[C@@H](COP(=O)(O)OP(=O)(O)OP(=O)(O)O)O2)c(=O)[nH]c1=O [d4T-TP, dideoxy, didehydro-TTP]

enhancement of ability to phosphorylate [9]: 200-300 times
Molecule: Cc1cn([C@H]2C=C[C@@H](CO)O2)c(=O)[nH]c1=O [d4T]

k2/Ks [7]: 3.6e+06 M⁻¹ s⁻¹
k2/Ks ([8]; L55H, pre-steady state): 6.8e+06 M⁻¹ s⁻¹
k2/Ks ([9]; L55H-N115S, pre-steady state): 500000 M⁻¹ s⁻¹
k2/Ks ([10]; N115S, pre-steady state): 240000 M⁻¹ s⁻¹
Molecule: Nc1nc2c(ncn2[C@H]2C[C@H](O)[C@@H](COP(=O)(O)OP(=O)(O)OP(=O)(O)O)O2)c(=O)[nH]1 [dGTP]

Molecule: Nc1ncnc2c1ncn2[C@H]1CC[C@@H](COP(=O)(O)OP(=O)(O)OP(=O)(O)O)O1 [ddATP]
k2/Ks N119S (catalytic efficiency of phosphotransfer) [2]: 2700 M⁻¹ s⁻¹
k2/Ks [3]: 2700 M⁻¹ s⁻¹
k2/Ks [4]: 1300 M⁻¹ s⁻¹
Kd [5]: 4.6 µM
Kd [6]: 2.6 µM

k2/Ks [7]: 20 M⁻¹ s⁻¹
k2/Ks ([8]; L55H, pre-steady state): 200 M⁻¹ s⁻¹
Specificity change (R) [8]: (6)
k2/Ks ([9]; L55H-N115S, pre-steady state): 2800 M⁻¹ s⁻¹
Specificity change (R) [9]: (370)
k2/Ks ([10]; N115S, pre-steady state): 170 M⁻¹ s⁻¹
Specificity change (R) [10]: (100)
Molecule: Cc1cn([C@H]2CC[C@@H](COP(=O)(O)OP(=O)(O)OP(=O)(O)O)O2)c(=O)[nH]c1=O [dideoxy-TTP]

steady-state activity relative to NDPK-A ([11]; ATP and dTDP): 1.6 fold
Molecule: L55H: human NDPK-A with Leu 55 replaced by His
specific activity [11]: 1900 U/mg

activity relative to wild type ([11]; Dd-NDPK mutant, partially purified): 0.05 % of wild type activity
B1: N119Y: Dd-NDPK with Tyr at the position of Asn 119, unstable and poorly active (protein, UniProt P22887 1-155, looked up, variant N119Y)
Nucleoside diphosphate …: MSTNKVNKERTFLAVKPDGVARGLVGEIIARYEKKGFVLVGLKQLVPTKDLAESHYAEHKERPFFGGLVSFITSGPVVAMVFEGKGVVASARLMIGVTNPLASAPGSIRGDFGVDVGRYIIHGSDSVESANREIALWFKPEELLTEVKPNPNLYE

B2: Dd-NDPK: wild type NDP kinase from Dictyostelium discoideum (protein, UniProt P22887 1-155, looked up)
Nucleoside diphosphate …: B1 Nucleoside diphosphate … with Y119N
specific activity [11]: 2000 U/mg

From patent publication US20030207830A1, “Mutant NDP kinases for antiviral nucleotide analog activation and therapeutic uses thereof” (priority 2002, published 2003)
